Test results from publication PMC9250534, “Synthesis and direct assay of large macrocycle diversities by combinatorial late-stage modification at picomole scale” (Nature Communications, 2022).
Numbered stars: 1 amine (or outer) side, 2 acyl side, 3 side chain; on linkers, the order of the positions; unused ones are H or OH. Bridge positions count the residues as written; N and C are the ends. Square brackets hold non-standard residues; d marks the D form. Peptide text beside a SMILES is read from it. * marks the point of attachment. 2Thenoyl(5-Cl) = O=C(c1ccc(Cl)s1)*; Benzoyl(4-Cl) = O=C(c1ccc(Cl)cc1)*; Cysteamide = C(CS[*:3])N[*:1]; X1 = O=C(/C=C/c1ccccc1)*; Dap = NC[C@H](N)C(=O)O; Mpa = O=C(O)CCS

Molecular target: MDM2 (Homo sapiens, UniProt Q00987)
Assay: MDM2 binding screen: displacement of fluorescent p53 peptide probe FP53 (fluorescence polarization)
Settings: crude macrocycle reactions; for fraction fluorescent probe displaced, Screen: initial screen
How it was run: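 Macrocycle reaction products at a final 10 µM were tested for displacement of a p53-based fluorescent peptide from human MDM2. Fluorescence anisotropy (ex 485/em 535 nm) was read once per macrocycle at 25 °C.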

Chain of MDM2 (Q00987 whole entry): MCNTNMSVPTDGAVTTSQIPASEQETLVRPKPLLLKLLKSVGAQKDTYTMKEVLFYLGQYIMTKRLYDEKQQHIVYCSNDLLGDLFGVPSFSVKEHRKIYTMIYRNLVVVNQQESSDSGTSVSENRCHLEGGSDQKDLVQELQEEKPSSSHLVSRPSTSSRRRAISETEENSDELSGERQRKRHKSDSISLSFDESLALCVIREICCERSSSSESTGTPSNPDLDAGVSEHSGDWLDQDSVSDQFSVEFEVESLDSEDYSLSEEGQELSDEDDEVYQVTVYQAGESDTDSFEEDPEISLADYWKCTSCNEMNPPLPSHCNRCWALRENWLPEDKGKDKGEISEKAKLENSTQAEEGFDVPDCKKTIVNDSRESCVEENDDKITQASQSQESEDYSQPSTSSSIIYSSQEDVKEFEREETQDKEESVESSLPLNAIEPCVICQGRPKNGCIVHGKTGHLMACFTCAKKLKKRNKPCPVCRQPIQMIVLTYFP

| fraction fluorescent probe displaced, Screen (Acid 91) | fraction fluorescent probe displaced, Replicate (Acid 91) | fraction fluorescent probe displaced, Screen (Acid 25) | fraction fluorescent probe displaced, Replicate (Acid 25) | SMILES | further results |
| --- | --- | --- | --- | --- | --- |
| -0.05 | 0.0168 |  |  | O=C(/C=C/c1ccccc1)NC[C@@H]1NC(=O)c2cccc(c2)CNC(=O)CCSSCCNC(=O)[C@H](Cc2ccccc2)NC1=O [X B5 D3 F Acid 91] |  |
|  |  | 0.25 | 0.30 | O=C1CCSSCCNC(=O)[C@H](Cc2c[nH]c3ccccc23)NC(=O)[C@H](CNC(=O)c2ccc(Cl)cc2)NC(=O)c2cccc(c2)CN1 [X B5 D3 W Acid 25] |  |
| 0.16 | 0.29 |  |  | O=C(C=Cc1ccccc1)NCC1NC(=O)c2cccc(c2)CNC(=O)CCSSCCNC(=O)C(Cc2c[nH]c3ccccc23)NC1=O (stereo not shown) [X B5 D3 W Acid 91] |  |
|  |  | 0.13 | 0.05 | O=C1CCSSCCNC(=O)C(Cc2ccccc2)NC(=O)C2CC(NC(=O)c3ccc(Cl)cc3)CN2C(=O)c2cccc(c2)CN1 (stereo not shown) [X B5 D5 F Acid 25] |  |
| -0.13 | 0.0168 |  |  | O=C(C=Cc1ccccc1)NC1CC2C(=O)NC(Cc3c[nH]c4ccccc34)C(=O)NCCSSCCC(=O)NCc3cccc(c3)C(=O)N2C1 (stereo not shown) [X B5 D5 W Acid 91] |  |
|  |  |  |  | O=C1CCSSCCNC(=O)C(Cc2ccccc2)NC(=O)C2(CCN(C(=O)c3ccc(Cl)s3)CC2)NC(=O)c2cccc(c2)CN1 (stereo not shown) [X B5 D6 F Acid 14] | fraction fluorescent probe displaced, Screen (Acid 14): -0.0116; fraction fluorescent probe displaced, Replicate (Acid 14): 0.05 |
|  |  | 0.0462 | 0.07 | O=C1CCSSCCNC(=O)[C@H](Cc2ccccc2)NC(=O)C2(CCN(C(=O)c3ccc(Cl)cc3)CC2)NC(=O)c2cccc(c2)CN1 [X B5 D6 F Acid 25] |  |
| -0.10 | -0.08 |  |  | O=C1CCSSCCNC(=O)C(Cc2ccccc2)NC(=O)C2(CCN(C(=O)C=Cc3ccccc3)CC2)NC(=O)c2cccc(c2)CN1 (stereo not shown) [X B5 D6 F Acid 91] |  |
|  |  | 0.12 | 0.15 | O=C1CCSSCCNC(=O)[C@H](Cc2c[nH]c3ccccc23)NC(=O)C2(CCN(C(=O)c3ccc(Cl)cc3)CC2)NC(=O)c2cccc(c2)CN1 [X B5 D6 W Acid 25] |  |
|  |  | 0.09 | 0.15 | O=C1CCSSCCNC(=O)C(Cc2c[nH]c3ccccc23)NC(=O)C2CN(C(=O)c3ccc(Cl)cc3)CCN2C(=O)c2cccc(c2)CN1 (stereo not shown) [X B5 D7 W Acid 25] |  |
| -0.10 | -0.06 |  |  | O=C1CCSSCCNC(=O)C(Cc2c[nH]c3ccccc23)NC(=O)C2CN(C(=O)C=Cc3ccccc3)CCN2C(=O)c2cccc(c2)CN1 (stereo not shown) [X B5 D7 W Acid 91] |  |
|  |  |  |  | O=C1CCSSCCNC(=O)[C@H](CNC(=O)c2ccc(Cl)s2)NC(=O)[C@H](Cc2ccccc2)NC(=O)c2cccc(c2)CN1 [X B5 F D3 Acid 14] | fraction fluorescent probe displaced, Screen (Acid 14): 0.053; fraction fluorescent probe displaced, Replicate (Acid 14): 0.0211 |
|  |  | 0.09 | 0.0465 | O=C1CCSSCCNC(=O)[C@H](CNC(=O)c2ccc(Cl)cc2)NC(=O)[C@H](Cc2ccccc2)NC(=O)c2cccc(c2)CN1 [X B5 F D3 Acid 25] |  |
| -0.05 | -0.00827 |  |  | O=C(/C=C/c1ccccc1)NC[C@@H]1NC(=O)[C@H](Cc2ccccc2)NC(=O)c2cccc(c2)CNC(=O)CCSSCCNC1=O [X B5 F D3 Acid 91] |  |
|  |  |  |  | O=C1CCSSCCNC(=O)[C@@H]2C[C@H](NC(=O)c3ccc(Cl)s3)CN2C(=O)[C@H](Cc2ccccc2)NC(=O)c2cccc(c2)CN1 [X B5 F D5 Acid 14] | fraction fluorescent probe displaced, Screen (Acid 14): 0.0241; fraction fluorescent probe displaced, Replicate (Acid 14): -0.00432 |
|  |  | 0.0244 | 0.10 | O=C1CCSSCCNC(=O)[C@@H]2C[C@H](NC(=O)c3ccc(Cl)cc3)CN2C(=O)[C@H](Cc2ccccc2)NC(=O)c2cccc(c2)CN1 [X B5 F D5 Acid 25] |  |
|  |  | 0.0244 | 0.0465 | O=C1CCSSCCNC(=O)C2(CCN(C(=O)c3ccc(Cl)cc3)CC2)NC(=O)C(Cc2ccccc2)NC(=O)c2cccc(c2)CN1 (stereo not shown) [X B5 F D6 Acid 25] |  |
| -0.05 | -0.06 |  |  | O=C1CCSSCCNC(=O)C2CN(C(=O)C=Cc3ccccc3)CCN2C(=O)C(Cc2ccccc2)NC(=O)c2cccc(c2)CN1 (stereo not shown) [X B5 F D7 Acid 91] |  |
|  |  | 0.15 | 0.12 | O=C1CCSSCCNC(=O)[C@H](CNC(=O)c2ccc(Cl)cc2)NC(=O)[C@H](Cc2c[nH]c3ccccc23)NC(=O)c2cccc(c2)CN1 [X B5 W D3 Acid 25] |  |

| fraction fluorescent probe displaced, Screen (Acid 91) | fraction fluorescent probe displaced, Replicate (Acid 91) | fraction fluorescent probe displaced, Screen (Acid 25) | fraction fluorescent probe displaced, Replicate (Acid 25) | SMILES | further results |
| --- | --- | --- | --- | --- | --- |
| 0.16 | 0.12 |  |  | O=C(/C=C/c1ccccc1)NC[C@@H]1NC(=O)[C@H](Cc2c[nH]c3ccccc23)NC(=O)c2cccc(c2)CNC(=O)CCSSCCNC1=O [X B5 W D3 Acid 91] |  |
| 0.00268 | 0.12 |  |  | O=C(C=Cc1ccccc1)NC1CC2C(=O)NCCSSCCC(=O)NCc3cccc(c3)C(=O)NC(Cc3c[nH]c4ccccc34)C(=O)N2C1 (stereo not shown) [X B5 W D5 Acid 91] |  |
|  |  |  |  | O=C1CCSSCCNC(=O)C2(CCN(C(=O)c3ccc(Cl)s3)CC2)NC(=O)C(Cc2c[nH]c3ccccc23)NC(=O)c2cccc(c2)CN1 (stereo not shown) [X B5 W D6 Acid 14] | fraction fluorescent probe displaced, Screen (Acid 14): 0.20; fraction fluorescent probe displaced, Replicate (Acid 14): 0.33 |
|  |  | 0.09 | 0.28 | O=C1CCSSCCNC(=O)C2(CCN(C(=O)c3ccc(Cl)cc3)CC2)NC(=O)[C@H](Cc2c[nH]c3ccccc23)NC(=O)c2cccc(c2)CN1 [X B5 W D6 Acid 25] |  |
| 0.16 | 0.17 |  |  | O=C1CCSSCCNC(=O)C2(CCN(C(=O)/C=C/c3ccccc3)CC2)NC(=O)[C@H](Cc2c[nH]c3ccccc23)NC(=O)c2cccc(c2)CN1 [X B5 W D6 Acid 91] |  |
|  |  | 0.12 | 0.07 | O=C1CCSSCCNC(=O)C2CN(C(=O)c3ccc(Cl)cc3)CCN2C(=O)C(Cc2c[nH]c3ccccc23)NC(=O)c2cccc(c2)CN1 (stereo not shown) [X B5 W D7 Acid 25] |  |
| 0.03 | -0.00827 |  |  | O=C1CCSSCCNC(=O)C2CN(C(=O)C=Cc3ccccc3)CCN2C(=O)C(Cc2c[nH]c3ccccc23)NC(=O)c2cccc(c2)CN1 (stereo not shown) [X B5 W D7 Acid 91] |  |
|  |  |  |  | O=C1CCSSCCNC(=O)[C@H](Cc2ccccc2)NC(=O)[C@@H]2CCCN2C(=O)[C@H](CNC(=O)c2ccc(Cl)s2)N1 [X D3 B1 F Acid 14] ([Mpa][Dap](2Thenoyl(5-Cl))PF-Cysteamide; disulfide 1-C) | fraction fluorescent probe displaced, Screen (Acid 14): 0.11; fraction fluorescent probe displaced, Replicate (Acid 14): 0.07 |
|  |  | 0.15 | 0.12 | O=C1CCSSCCNC(=O)[C@H](Cc2ccccc2)NC(=O)[C@@H]2CCCN2C(=O)[C@H](CNC(=O)c2ccc(Cl)cc2)N1 [X D3 B1 F Acid 25] ([Mpa][Dap](Benzoyl(4-Cl))PF-Cysteamide; disulfide 1-C) |  |
| 0.00268 | -0.00827 |  |  | O=C(/C=C/c1ccccc1)NC[C@@H]1NC(=O)CCSSCCNC(=O)[C@H](Cc2ccccc2)NC(=O)[C@@H]2CCCN2C1=O [X D3 B1 F Acid 91] ([Mpa][Dap](X1)PF-Cysteamide; disulfide 1-C) |  |
|  |  |  |  | O=C1CCSSCCNC(=O)[C@H](Cc2c[nH]c3ccccc23)NC(=O)[C@@H]2CCCN2C(=O)[C@H](CNC(=O)c2ccc(Cl)s2)N1 [X D3 B1 W Acid 14] ([Mpa][Dap](2Thenoyl(5-Cl))PW-Cysteamide; disulfide 1-C) | fraction fluorescent probe displaced, Screen (Acid 14): 0.17; fraction fluorescent probe displaced, Replicate (Acid 14): 0.10 |
|  |  | 0.28 | 0.15 | O=C1CCSSCCNC(=O)[C@H](Cc2c[nH]c3ccccc23)NC(=O)[C@@H]2CCCN2C(=O)[C@H](CNC(=O)c2ccc(Cl)cc2)N1 [X D3 B1 W Acid 25] ([Mpa][Dap](Benzoyl(4-Cl))PW-Cysteamide; disulfide 1-C) |  |
| -0.0241 | 0.04 |  |  | O=C(/C=C/c1ccccc1)NC[C@@H]1NC(=O)CCSSCCNC(=O)[C@H](Cc2c[nH]c3ccccc23)NC(=O)[C@@H]2CCCN2C1=O [X D3 B1 W Acid 91] ([Mpa][Dap](X1)PW-Cysteamide; disulfide 1-C) |  |
|  |  |  |  | O=C1CCSSCCNC(=O)[C@H](Cc2ccccc2)NC(=O)CCNC(=O)[C@H](CNC(=O)c2ccc(Cl)s2)N1 [X D3 B2 F Acid 14] | fraction fluorescent probe displaced, Screen (Acid 14): 0.17; fraction fluorescent probe displaced, Replicate (Acid 14): 0.10 |
| 0.08 | 0.04 |  |  | O=C(/C=C/c1ccccc1)NC[C@@H]1NC(=O)CCSSCCNC(=O)[C@H](Cc2ccccc2)NC(=O)CCNC1=O [X D3 B2 F Acid 91] |  |
|  |  |  |  | O=C1CCSSCCNC(=O)[C@H](Cc2c[nH]c3ccccc23)NC(=O)CCNC(=O)[C@H](CNC(=O)c2ccc(Cl)s2)N1 [X D3 B2 W Acid 14] | fraction fluorescent probe displaced, Screen (Acid 14): 0.17; fraction fluorescent probe displaced, Replicate (Acid 14): 0.25 |
|  |  | 0.12 | 0.0465 | O=C1CCSSCCNC(=O)[C@H](Cc2c[nH]c3ccccc23)NC(=O)CCNC(=O)[C@H](CNC(=O)c2ccc(Cl)cc2)N1 [X D3 B2 W Acid 25] |  |
| 0.11 | -0.0333 |  |  | O=C(C=Cc1ccccc1)NCC1NC(=O)CCSSCCNC(=O)C(Cc2c[nH]c3ccccc23)NC(=O)CCNC1=O (stereo not shown) [X D3 B2 W Acid 91] |  |
|  |  |  |  | O=C1CCSSCCNC(=O)[C@H](Cc2ccccc2)NC(=O)[C@H]2CCCN(C2)C(=O)[C@H](CNC(=O)c2ccc(Cl)s2)N1 [X D3 B4 F Acid 14] | fraction fluorescent probe displaced, Screen (Acid 14): 0.0241; fraction fluorescent probe displaced, Replicate (Acid 14): 0.10 |
